Holding throughout (experiment): NCI-60 cell line screen, 48 h
In assay [1] the test system is A549.
In assay [2] the test system is ACHN.
Assay [3] relates to EKVX.
Assay [4] relates to HOP-62.
For assay [5], the system named is HOP-92.
The subject of assay [6] is HT-29.
Assay [7] deals with LOX IMVI.
Assay [8] deals with MDA-MB-435.
Assay [9] concerns MDA-N.
For assay [10], the system named is Malme-3M.
Assay [11] relates to NCI-H226.
The subject of assay [12] is OVCAR-3.
Assay [13] has as its system OVCAR-5.
Assay [14] deals with OVCAR-8.
Assay [15] concerns PC-3.
The test system of assay [16] is SK-MEL-28.
For assay [17], the system named is SNB-75.
The subject of assay [18] is TK-10.
The test system of assay [19] is U-251.
Assay [20] relates to NCI-H460.

Structures are written as SMILES.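 These data come from cells grown in 96-well plates and exposed to compound for 48 hours at five concentrations. The concentration for 50% growth inhibition is given as GI50.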 The source made the active and inactive calls. Rule as the data show it: active = GI50 up to about 1.1 µM and inactive = higher.

Take `O=C(c1ccccc1)c1ccc2[nH]c(-c3c(Cl)c(Cl)c(Cl)c(Cl)c3C(=O)N/N=C\C=C\c3ccccc3)nc2c1`: the GI50 in assay [1] was 50.1 µM (inactive); in [2] it was 19.8 µM (inactive); in assay [3], 40.7 µM (inactive); in assay [4], 54.1 µM (inactive); in assay [5], 41.1 µM (inactive); in [6], 45 µM (inactive). For the same compound, the GI50 in assay [7] was 48.9 µM (inactive); in assay [8], 30.1 µM (inactive); in assay [9] it was 32.1 µM (inactive); in assay [10] it was 57.3 µM (inactive); in [11] it was 42.8 µM (inactive); in assay [12], 25.1 µM (inactive). Also, the GI50 was > 100 µM (inactive) in [13]; 60 µM (inactive) in [14]; 42.3 µM (inactive) in [15]; 51.3 µM (inactive) in [16]; 59.4 µM (inactive) in assay [17]; 86.9 µM (inactive) in [18]. In addition, the GI50 in [19] is 68.9 µM (inactive).

Turning to `Oc1ccc(/C=C/c2cc(O)cc3c2C(c2cc(O)cc(O)c2)C(c2ccc(O)c(O)c2)O3)cc1` (stereo not drawn), the GI50 was 45.6 µM (inactive) in assay [1]; 15 µM (inactive) in assay [2]; 25.3 µM (inactive) in [3]; 35.9 µM (inactive) in [4]; 37.1 µM (inactive) in [5]; 17.6 µM (inactive) in assay [6]. Besides, the GI50 in assay [7] is 27 µM (inactive); in assay [8] it was 32.6 µM (inactive); in assay [9], 18.2 µM (inactive); in assay [10], 26.7 µM (inactive); in assay [11], 26 µM (inactive); in assay [12], 27.8 µM (inactive). For the same compound, the GI50 in assay [13] is 35.6 µM (inactive); in [14] it was 21.6 µM (inactive); in assay [15] it was 31.3 µM (inactive); in [16] it was 25.1 µM (inactive); in [17] it was 49.5 µM (inactive); in assay [18], 27.1 µM (inactive). Besides, in assay [19], the GI50 was 31 µM (inactive).

For the compound `CC1=NNC(=S)NCCCN2CCN(CCCNC(=S)NN=C(C)C=NNC(=S)NCCCN3CCN(CCCNC(=S)NN=C1)CC3)CC2`, the GI50 in [1], in assay [2], in assay [3], in assay [4], in assay [5] and in assay [6] was > 100 µM (inactive) throughout. The GI50 in assay [7], in [8], in assay [9], in [10], in assay [11] and in [12] was > 100 µM (inactive) throughout. Moreover, the GI50 in assay [13], in assay [14], in assay [15], in [16], in assay [17] and in assay [18] was > 100 µM (inactive) throughout. Further, the GI50 in assay [19] is > 100 µM (inactive).

Take `CC(C)Oc1cccc(N2C(Nc3ccccc3)=Nc3ccncc3S2(=O)=O)c1`: the GI50 in [1] was 20.4 µM (inactive); in assay [2] it was 26.5 µM (inactive); in [3], 40.5 µM (inactive); in [4], 32.7 µM (inactive); in assay [5], 16.2 µM (inactive); in [6], 12.2 µM (inactive). The GI50 in [7] is 17.7 µM (inactive); in assay [8] it was 11.8 µM (inactive); in assay [9] it was 23.1 µM (inactive); in assay [10], 23.2 µM (inactive); in [11] it was 24.1 µM (inactive); in assay [20] it was 13.3 µM (inactive). For the same compound, the GI50 was 18.4 µM (inactive) in [12]; 48.1 µM (inactive) in assay [13]; 18.2 µM (inactive) in assay [14]; 6.12 µM (inactive) in [15]; 0.32 µM (active) in [16]; > 100 µM (inactive) in assay [17]. Besides, in assay [19], the GI50 was 7.67 µM (inactive).

Regarding `Cn1c(=O)c2c(nc3[nH]c(=O)c(Br)cn32)n(C)c1=O`, the GI50 is > 100 µM (inactive) in [1]; > 100 µM (inactive) in assay [2]; 93.8 µM (inactive) in [3]; > 100 µM (inactive) in assay [4]; > 100 µM (inactive) in assay [5]; > 100 µM (inactive) in assay [6]. Moreover, the GI50 in assay [7], in assay [8], in assay [9], in assay [11], in [20] and in assay [12] was > 100 µM (inactive) throughout. In addition, the GI50 in assay [13], in assay [14], in assay [15], in assay [16], in assay [17] and in [18] was > 100 µM (inactive) each time. The GI50 in assay [19] is > 100 µM (inactive).

Take `C1CSC(Sc2nc(SC3=NCCS3)nc(SC3=NCCS3)n2)=N1`: the GI50 in assay [1], in assay [2], in assay [3], in assay [4], in assay [5] and in assay [6] was > 100 µM (inactive) in each case. In addition, the GI50 in [7], in [8], in assay [9], in assay [10], in assay [11] and in assay [20] was > 100 µM (inactive) throughout. Moreover, the GI50 in assay [12], in [13], in assay [14], in assay [15], in [16] and in assay [18] was > 100 µM (inactive) each time. The GI50 in [19] is > 100 µM (inactive).

For the compound `C/C(=N\NC(N)=O)C(CN1CCOCC1)C(c1ccccc1)c1c(O)c2ccccc2oc1=O` (stereo not drawn), the GI50 in assay [1], in assay [2], in assay [3], in assay [5], in assay [6] and in [7] was > 100 µM (inactive) each time. Moreover, the GI50 in assay [8], in assay [9], in assay [10], in assay [11], in assay [12] and in assay [13] was > 100 µM (inactive) each time. For the same compound, the GI50 in [14], in [15], in assay [16], in assay [17], in [18] and in assay [19] was > 100 µM (inactive) in each case.

As for `CC(C)C1CC(CO)(CNc2cc(Cl)nc(N)n2)C1` (stereo not drawn), the GI50 is 39.2 µM (inactive) in assay [1]; > 100 µM (inactive) in [2]; 7.06 µM (inactive) in assay [3]; > 100 µM (inactive) in assay [4]; 45 µM (inactive) in assay [5]; > 100 µM (inactive) in assay [6]. In addition, the GI50 in assay [7] is 10.4 µM (inactive); in assay [8], 46.1 µM (inactive); in assay [9] it was 57.7 µM (inactive); in [10], 39.2 µM (inactive); in [11], 13.5 µM (inactive); in assay [20], 30.9 µM (inactive). In addition, the GI50 in [12] was 17.9 µM (inactive); in assay [13], 81.8 µM (inactive); in [14] it was 88.9 µM (inactive); in assay [15], 71 µM (inactive); in assay [16], > 100 µM (inactive); in assay [18], > 100 µM (inactive). Moreover, the GI50 in assay [19] is 44 µM (inactive).

Regarding `O=[N+]([O-])c1cc(-c2ccc([As](=O)(O)O)cc2)ccc1[As](=O)(O)O`, the GI50 in [1], in [2], in assay [3], in assay [4], in assay [5] and in assay [6] was > 100 µM (inactive) in each case. The GI50 in assay [7], in assay [8], in assay [9], in [10], in assay [11] and in assay [20] was > 100 µM (inactive) each time. Further, the GI50 in [12], in assay [13], in assay [14], in assay [15], in assay [16] and in assay [18] was > 100 µM (inactive) in each case. Further, the GI50 in [19] is > 100 µM (inactive).

Consider `CN(C)c1ccc(C=c2c3cc(O)ccc3n3c2cc(-c2ccccc2)[n+]3C)cc1`, for which the GI50 in assay [1] was 3.73 µM (inactive); in assay [2] it was 7.78 µM (inactive); in [3], 1.96 µM (inactive); in assay [4], 1.81 µM (inactive); in assay [5], 1.13 µM (inactive); in assay [6], 1.69 µM (inactive). The GI50 is 1.18 µM (inactive) in assay [7]; 0.964 µM (active) in assay [8]; 0.67 µM (active) in assay [9]; 1.66 µM (inactive) in [11]; 0.746 µM (active) in assay [12]; 4.82 µM (inactive) in assay [13]. Besides, the GI50 in [14] was 0.76 µM (active); in assay [15], 0.9 µM (active); in assay [16], 1.06 µM (active); in assay [17], 0.468 µM (active); in [18], 3.72 µM (inactive); in assay [19], 0.317 µM (active).

The values are drawn from ChEMBL document CHEMBL1201862, “PubChem BioAssay data set” (2004).
